From ChEMBL document CHEMBL1629525, “Synthesis and characterization of 1,3-dihydro-benzo[b][1,4]diazepin-2-one derivatives: Part 4. In vivo active potent and selective non-competitive metabotropic glutamate receptor 2/3 antagonists” (Bioorg Med Chem Lett, 2010)
Values after ≈ are worked out from the molar mass of the structure shown.

Legend:
[1] = target: T1, Metabotropic glutamate receptor 2 (Rattus norvegicus, UniProt P31421); assay: Partial displacement of [3H]LY354740 from recombinant rat mGluR2
T1 sequence (P31421 whole entry): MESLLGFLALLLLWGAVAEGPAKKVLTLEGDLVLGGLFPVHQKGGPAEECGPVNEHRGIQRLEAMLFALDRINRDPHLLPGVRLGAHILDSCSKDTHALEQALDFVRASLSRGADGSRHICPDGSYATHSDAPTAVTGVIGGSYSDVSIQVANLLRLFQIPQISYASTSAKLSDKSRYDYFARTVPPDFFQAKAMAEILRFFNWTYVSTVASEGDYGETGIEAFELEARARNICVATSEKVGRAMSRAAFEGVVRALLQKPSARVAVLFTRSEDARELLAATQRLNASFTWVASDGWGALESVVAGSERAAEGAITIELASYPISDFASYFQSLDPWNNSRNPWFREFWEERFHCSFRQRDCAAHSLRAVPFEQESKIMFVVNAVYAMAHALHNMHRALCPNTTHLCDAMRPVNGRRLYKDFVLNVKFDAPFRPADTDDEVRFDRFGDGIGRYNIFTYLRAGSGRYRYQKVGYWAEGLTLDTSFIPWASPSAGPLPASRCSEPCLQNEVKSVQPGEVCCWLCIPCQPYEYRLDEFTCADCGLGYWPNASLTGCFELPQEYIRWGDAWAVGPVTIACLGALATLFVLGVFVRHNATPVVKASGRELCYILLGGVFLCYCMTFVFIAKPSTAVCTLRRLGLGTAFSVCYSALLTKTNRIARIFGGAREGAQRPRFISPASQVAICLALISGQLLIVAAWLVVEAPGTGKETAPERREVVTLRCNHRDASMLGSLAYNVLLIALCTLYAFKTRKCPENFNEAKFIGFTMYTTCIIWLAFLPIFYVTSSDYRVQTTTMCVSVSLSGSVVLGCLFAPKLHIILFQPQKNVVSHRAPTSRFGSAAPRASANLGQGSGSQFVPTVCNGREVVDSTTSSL

[2] = target: T1, Metabotropic glutamate receptor 2; assay: Antagonist activity at recombinant rat mGluR2 expressed in forskolin-stimulated CHO cells assessed as inhibition of (1S,3R)-ACPD induced cAMP production; type: functional, cell-based
Cytochrome P450 3A4 = Cytochrome P450 3A4 (Homo sapiens, UniProt P08684); assay: Inhibition of CYP3A4; type: ADME
Sequence of Cytochrome P450 3A4 (P08684 whole entry): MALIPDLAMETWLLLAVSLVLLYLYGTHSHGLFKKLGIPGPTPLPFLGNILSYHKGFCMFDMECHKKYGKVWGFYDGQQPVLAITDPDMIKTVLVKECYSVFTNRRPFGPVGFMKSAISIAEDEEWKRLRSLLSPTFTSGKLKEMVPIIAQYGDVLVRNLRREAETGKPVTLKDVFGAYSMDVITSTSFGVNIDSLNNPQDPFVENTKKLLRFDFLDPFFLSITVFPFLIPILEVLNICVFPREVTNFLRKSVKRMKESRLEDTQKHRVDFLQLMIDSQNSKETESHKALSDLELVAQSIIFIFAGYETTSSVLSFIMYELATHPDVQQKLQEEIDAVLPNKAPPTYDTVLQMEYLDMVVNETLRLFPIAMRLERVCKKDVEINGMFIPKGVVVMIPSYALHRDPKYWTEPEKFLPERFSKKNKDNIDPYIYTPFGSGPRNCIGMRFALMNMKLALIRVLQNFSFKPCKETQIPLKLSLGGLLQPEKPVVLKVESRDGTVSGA

[3] = Thermodynamic solubility of the compound at pH 3; type: physicochemical; settings: buffer
Liver microsomes = assay: Clearance in rat liver microsomes; type: ADME, Microsome
[4] = target: T1, Metabotropic glutamate receptor 2; assay: Antagonist activity at rat mGluR2 receptor expressed in CHO cells assessed as inhibition of GIRK current; type: functional, cell-based
[5] = target: Metabotropic glutamate receptor 3 (Rattus norvegicus, UniProt P31422); assay: Antagonist activity at rat mGluR3 receptor expressed in CHO cells assessed as inhibition of GIRK current; type: functional, cell-based
Sequence of Metabotropic glutamate receptor 3 (P31422 whole entry): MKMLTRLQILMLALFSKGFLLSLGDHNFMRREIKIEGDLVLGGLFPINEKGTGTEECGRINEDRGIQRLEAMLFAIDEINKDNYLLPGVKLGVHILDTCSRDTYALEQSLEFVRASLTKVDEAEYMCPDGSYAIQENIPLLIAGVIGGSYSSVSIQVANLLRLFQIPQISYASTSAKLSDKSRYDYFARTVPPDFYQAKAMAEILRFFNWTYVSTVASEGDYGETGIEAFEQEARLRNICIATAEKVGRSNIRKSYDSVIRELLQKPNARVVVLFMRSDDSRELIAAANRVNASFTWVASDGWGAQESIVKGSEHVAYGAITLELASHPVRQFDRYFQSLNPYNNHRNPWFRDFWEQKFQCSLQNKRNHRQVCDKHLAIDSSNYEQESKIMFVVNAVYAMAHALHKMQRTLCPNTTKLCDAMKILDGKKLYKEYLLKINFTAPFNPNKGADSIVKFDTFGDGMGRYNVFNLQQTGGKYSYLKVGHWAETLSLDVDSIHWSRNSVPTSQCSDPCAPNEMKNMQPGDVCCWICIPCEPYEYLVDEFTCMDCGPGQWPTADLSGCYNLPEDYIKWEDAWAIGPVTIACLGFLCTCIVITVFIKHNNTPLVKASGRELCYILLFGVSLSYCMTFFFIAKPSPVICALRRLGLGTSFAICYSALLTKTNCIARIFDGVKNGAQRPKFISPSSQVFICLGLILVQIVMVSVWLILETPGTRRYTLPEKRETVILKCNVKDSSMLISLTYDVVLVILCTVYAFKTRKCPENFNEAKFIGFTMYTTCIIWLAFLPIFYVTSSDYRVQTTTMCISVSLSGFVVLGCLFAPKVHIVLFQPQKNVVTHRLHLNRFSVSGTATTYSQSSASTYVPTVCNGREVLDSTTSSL

[6] = target: Metabotropic glutamate receptor 2 (Homo sapiens, UniProt Q14416); assay: Antagonist activity at human mGluR2 receptor expressed in CHO cells assessed as inhibition of GIRK current; type: functional, cell-based
Sequence of Metabotropic glutamate receptor 2 (Homo sapiens, UniProt Q14416) (Q14416 whole entry): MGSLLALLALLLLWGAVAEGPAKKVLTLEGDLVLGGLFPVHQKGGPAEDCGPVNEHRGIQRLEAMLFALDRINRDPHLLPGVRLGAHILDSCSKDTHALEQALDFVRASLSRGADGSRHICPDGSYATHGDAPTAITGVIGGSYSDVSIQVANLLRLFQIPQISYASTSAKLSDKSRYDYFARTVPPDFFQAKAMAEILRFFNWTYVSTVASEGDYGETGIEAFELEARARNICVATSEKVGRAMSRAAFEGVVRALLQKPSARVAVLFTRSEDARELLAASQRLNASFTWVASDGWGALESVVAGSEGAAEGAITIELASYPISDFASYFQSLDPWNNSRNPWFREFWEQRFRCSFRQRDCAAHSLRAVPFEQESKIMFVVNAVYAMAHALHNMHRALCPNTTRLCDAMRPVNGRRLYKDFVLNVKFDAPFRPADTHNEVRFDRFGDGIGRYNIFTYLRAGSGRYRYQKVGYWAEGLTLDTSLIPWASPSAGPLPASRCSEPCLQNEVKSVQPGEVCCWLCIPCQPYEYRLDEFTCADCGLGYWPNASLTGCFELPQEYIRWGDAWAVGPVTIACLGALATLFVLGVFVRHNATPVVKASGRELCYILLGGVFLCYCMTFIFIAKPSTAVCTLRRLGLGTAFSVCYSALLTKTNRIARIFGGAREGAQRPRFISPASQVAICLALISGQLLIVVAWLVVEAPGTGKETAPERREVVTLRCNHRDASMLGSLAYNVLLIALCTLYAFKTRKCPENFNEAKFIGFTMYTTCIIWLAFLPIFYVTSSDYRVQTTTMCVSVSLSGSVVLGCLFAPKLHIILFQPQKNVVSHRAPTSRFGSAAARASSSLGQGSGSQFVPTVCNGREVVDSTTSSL

## Cc1cc2c(cc1C(F)(F)F)NC(=O)CC(c1cccc(-c3ccc(N)nc3)c1)=N2
[1]
  IC50: 14 nM
[2]
  IC50: 160 nM

## Cc1cc2c(cc1C(F)(F)F)NC(=O)CC(c1cccc(-n3ccnc3)c1)=N2
Cytochrome P450 3A4
  IC50: < 100 nM

## Cc1cc2c(cc1C(F)(F)F)NC(=O)CC(c1cccc(-n3nncc3CO)c1)=N2
[1]
  IC50: 120 nM

## Cc1ccc2c(c1)NC(=O)CC(c1ccccc1)=N2
[1]
  IC50: 6400 nM

## COc1ccc(-c2cccc(C3=Nc4cc(C)c(C(F)(F)F)cc4NC(=O)C3)c2)cn1
[1]
  IC50: 5 nM
[2]
  IC50: 10 nM

## Cc1cc2c(cc1C(F)(F)F)NC(=O)CC(c1cccc(-c3ccccn3)c1)=N2
[1]
  IC50: 26 nM
[2]
  IC50: 30 nM

## Cc1cc(-c2cccc(C3=Nc4cc(C)c(C(F)(F)F)cc4NC(=O)C3)c2)ccn1
[1]
  IC50: 4 nM
[2]
  IC50: 4 nM
Cytochrome P450 3A4
  IC50: 1900 nM
[3]
  solubility thermodynamic: 45 µg/mL (≈ 110 µM)
Liver microsomes
  CL: 0.8 mL/min/kg
[4]
  IC50: 13 nM
[5]
  IC50: 14 nM
[6]
  IC50: 41 nM

## Cc1cc2c(cc1C(F)(F)F)NC(=O)CC(c1cccc(-c3ccnc(-n4cccc4)c3)c1)=N2
[1]
  IC50: 59 nM

## Cc1cc2c(cc1C(F)(F)F)NC(=O)CC(c1cccc(-c3ccnc(N4CCOCC4)c3)c1)=N2
[1]
  IC50: 29 nM

## COCc1cc(-c2cccc(C3=Nc4cc(C)c(C(F)(F)F)cc4NC(=O)C3)c2)ccn1
[1]
  IC50: 13 nM
[2]
  IC50: 6 nM

## Cc1cc2c(cc1C(F)(F)F)NC(=O)CC(c1cccc(-c3ccnc(C(F)(F)F)c3)c1)=N2
[1]
  IC50: 66 nM

## Cc1cc2c(cc1C(F)(F)F)NC(=O)CC(c1cccc(-c3cccnn3)c1)=N2
[1]
  IC50: 128 nM

## Cc1cc2c(cc1C(F)(F)F)NC(=O)CC(c1cccc(-c3ccnc(CO)c3)c1)=N2
[1]
  IC50: 13 nM
[2]
  IC50: 18 nM

## Cc1nc(-c2cccc(C3=Nc4ccc(C(F)(F)F)cc4NC(=O)C3)c2)co1
[1]
  IC50: 350 nM

## Cc1cc2c(cc1C(F)(F)F)NC(=O)CC(c1cccc(-c3ccc(C4CC4)nc3)c1)=N2
[1]
  IC50: 6 nM
[2]
  IC50: 20 nM

## Cn1nccc1-c1cccc(C2=Nc3ccc(C(F)(F)F)cc3NC(=O)C2)c1
[1]
  IC50: 39 nM
[2]
  IC50: 190 nM

## Cc1cc(-c2cccc(C3=Nc4cc(C(F)(F)F)c(C(F)(F)F)cc4NC(=O)C3)c2)cc(C)n1
[1]
  IC50: 7 nM
[2]
  IC50: 7 nM

## Cc1cc2c(cc1C(F)(F)F)NC(=O)CC(c1cccc(-c3ccnc(C4CCCC4)c3)c1)=N2
[1]
  IC50: 10 nM
[2]
  IC50: 7 nM

## Cc1cc2c(cc1C(F)(F)F)NC(=O)CC(c1cccc(-c3ccnc(C#N)c3)c1)=N2
[1]
  IC50: 12 nM
[2]
  IC50: 18 nM

## CCc1cc(-c2cccc(C3=Nc4cc(C)c(C(F)(F)F)cc4NC(=O)C3)c2)ccn1
[1]
  IC50: 8 nM
[2]
  IC50: 5 nM

## Cc1cc(-c2cccc(C3=Nc4cc(C)c(C(F)(F)F)cc4NC(=O)C3)c2)cc(CO)n1
[1]
  IC50: 14 nM
[2]
  IC50: 15 nM

## Cc1cc2c(cc1C(F)(F)F)NC(=O)CC(c1cccc(-c3ccnc(C(C)C)c3)c1)=N2
[1]
  IC50: 4 nM
[2]
  IC50: 10 nM

## CCc1ccc(-c2cccc(C3=Nc4cc(C)c(C(F)(F)F)cc4NC(=O)C3)c2)cn1
[1]
  IC50: 9 nM
[2]
  IC50: 18 nM

## Cc1cc2c(cc1C(F)(F)F)NC(=O)CC(c1cccc(-c3ccnc(-c4ccccc4)c3)c1)=N2
[1]
  IC50: 118 nM

## COc1cc(-c2cccc(C3=Nc4cc(C)c(C(F)(F)F)cc4NC(=O)C3)c2)ccn1
[1]
  IC50: 13 nM
[2]
  IC50: 16 nM
